Measured values as given in US10238688B2, “Combination therapies for bladder cancer” (GENEDIA BIOTECH CO. LTD., priority 2015, dated 2019).

Key:
Assay type in all cases: cell-based, human
H-bc = experiment: MTT cell survival / IC50, H-bc cells
Experimental: (§1) The clinical grade of the chemotherapeutics (NCI Dictionary of Cancer Terms) was provided by the First Affiliated Hospital of Harbin Medical University: Pirarubicin (Pi, Wanle, Shenzhen), Paclitaxel (Pa, Taiji, Sichuan), Adriamycin (Ad, Pfizer, Jiangsu), Epirubicin Hydrochloride (EH, Haizheng, Zhejiang), Hydroxycamptothecin (Hy, Lishizhen, Hubei), Cisplatin (Ci, Haosen, Jiangsu), Gemcitabine (Ge, Haosen, Jiangsu) and Mitomycin (Mi, Haizheng, Zhejiang). The drug induced cell death was determined by a thiazolyl […] (MTT, 490 nm reading) based cell proliferation assay in the cultured cells following treatment by various concentrations of drugs for 72 hours. The relative chemoresistance to each drug of all cell lines was calculated with the lowest IC50 as a reference. The overall chemoresistance of each cell line was described as “chemoresistance index”, the numerator of the total relative IC50 to all the drugs over the number of drugs to rank the overall resistance state of each cell line to the six chemotherapeutics collectively.
(§2) The relative IC50 (fold) of each drug of all nine cell lines was normalized to the lowest IC50 in the most sensitive cell line (FIG. 2G), to describe the single drug resistance of cell lines. The overall chemoresistance of each cell line, a “chemoresistance index” (the numerator of the total relative IC50 over the number of drugs) (FIG. 2G) were calculated to rank the overall resistance state of each cell line to this six chemotherapeutics.
(§3) Twenty six-drug combinations at the indicated doses were initially generated through a random number generator (using MATLAB MathWorks©, Natick, Mass., U.S.) (The upper half of Table 1). The cell survival (% over the not drug control) of treated cells was determined and then used for a calculation of the average cumulative cell survival (%, ACS: the sum of cell survival (%) per combination divided by the number of cell lines tested). ACS<30% was used to separate the effective from the not-effective combinations.

Notch pathway = experiment: Cignal Finder dual-luciferase pathway reporter, Notch; parameters: key to Relative activity, Notch reporter: firefly/renilla ratio, background (negative control) subtracted; settings: for Relative activity, Notch reporter: luc/Renluc relative to negative control reporter, single drug at 4 folds vs EH/Ci/Mi combination;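 for digitalized pathway activity, Notch: code −1 means repressed below 0.5-fold of 5637 cells or no-drug control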
Experimental: (§4) The pathway analysis was performed with Qiagen's Cignal Finder Pathway Reporter Array systems according to the manufacturer's instructions. The pathway-focused dual-luciferase reporter construct was a mixture of an inducible transcription factor responsive firefly luciferase reporter and constitutively expressing renilla construct. Transcriptional response element (TRE) sequence response elements to each specific transcriptional factor triggered by the different signaling pathways are positioned before the TATA box of firefly luciferase reporter gene. The extent of activity of the reporter reflects the level of activity of the particular signaling pathway. CMV controlled renilla expression vector is co-transfected into the cell as an internal control. Non-inducible reporter construct that lacks the transcriptional factor binding sequence and could not be induced by any transcription factors is used as a negative control. Cells transfected with CMV directed firefly luciferase reporter gene serve as a positive control. Briefly, cells seeded in 6-well plates were transfected with Cignal finder pathway arrays according to the manufacturer's instructions (Qiagen). Then cells were seeded onto 96-well plates. Ci (6000 ng/mL), Mi (800 ng/mL), or EH (1000 ng/mL) and Ci/Mi/EH combination (Ci, 1500 ng/mL, Mi, 800 ng/mL and EH, 1000 ng/m L) were then added to the cells 24 h post-transfection. After 6 h of incubation with the different drugs at 37° C., cells were lysed and a dual luciferase assay (for firefly and renilla luciferase) was performed using a PromegaGloMax 20/20 illuminometer. The firefly luciferase activities were normalized over the renilla luciferase activities after background activity determined by luciferase activities of negative controls was subtracted. A triple test of cell survival under these drug doses was also performed by MTT assay following 18 h incubation at 37° C. […]

T24 = experiment: MTT cell survival / IC50, T24 cells
Experimental: as §1, §2, §3

SCaBER = experiment: MTT cell survival / IC50, SCaBER squamous carcinoma cells
Experimental: as §1, §2

[1] = tested on: DNA Damage response pathway; experiment: Cignal Finder dual-luciferase pathway reporter, DNA Damage response (5637, Biu87, UM-UC-3, H-bc, SV-HUC-1); parameters: key to Relative activity, DNA Damage reporter: firefly/renilla ratio, background (negative control) subtracted; settings: for Relative activity, DNA Damage reporter: luc/Renluc relative to negative control reporter, single drug at 4 folds vs EH/Ci/Mi combination
Experimental: as §4, with “Ci (6000 ng/mL), Mi (800 ng/mL), or EH (1000 ng/mL) and Ci/Mi/EH combination (Ci, 1500 ng/mL, Mi, 800 ng/mL and EH, 1000 ng/m L) were then added to the cells 24 h post-transfection.” left out

Biu87 = experiment: MTT cell survival / IC50, Biu87 cells
Experimental: as §1, §2, §3

[2] = Table S3, ng/ml: Pi 40, Pa 160, EH 250, Ci 1500, Mi 200, 1=Ci/Mi, 2=EH/Ci/Mi, 3=Pa/Ci/Mi, 4=Pi/Ci/Mi
[3] = ng/ml: EH 1000, Ci 6000, Mi 800, Pi 160, Pa 640, Ge 20, EH/Ci/Mi regimen

## COC12C(COC(N)=O)C3=C(C(=O)C(C)=C(N)C3=O)N1CC1NC12 (stereo not shown) [Mi, [6-Amino-8a-methoxy-5-methyl-4,7-dioxo-1,1a,2,4,7,8,8a,8b-octahydroazireno [2′,3′:3,4]pyrrolo[1,2-a]indol-8-yl]methyl carbamate]
H-bc; H-bc cells, Table 4 (A)
  Cell survival 72 hours: 81.16%
H-bc; H-bc cells, Table 4 (B)
  ACS (%): 81.16%
H-bc; H-bc, Table S3, ng/ml: Pi 40, Pa 160, EH 250, Ci 1500, Mi 200, 1=Ci/Mi, 2=EH/Ci/Mi, 3=Pa/Ci/Mi, 4=Pi/Ci/Mi
  Cell survival (%): 91.67%
H-bc; H-bc, ng/ml: EH 1000, Ci 6000, Mi 800, Pi 160, Pa 640, Ge 20, EH/Ci/Mi regimen
  Single drug 4X Cell Survival (%): 81.16%
Notch pathway; 5637 cells
  relative drug trigged pathway activity over the no-drug level, Notch: 2.2 fold
  Relative activity, Notch reporter: 2.23
Notch pathway; Biu87 cells
  digitalized pathway activity, Notch: 0 (null (0) if neither of the above holds)
  relative drug trigged pathway activity over the no-drug level, Notch: 1.45 fold
  Relative activity, Notch reporter: 6.42
Notch pathway; H-bc cells
  relative drug trigged pathway activity over the no-drug level, Notch: 0.42 fold
  Relative activity, Notch reporter: 0.59
Notch pathway; SV-HUC-1 cells
  digitalized pathway activity, Notch: 0 (null (0) if neither of the above holds)
  relative drug trigged pathway activity over the no-drug level, Notch: 0.95 fold
  Relative activity, Notch reporter: 4.10
Notch pathway; UM-UC-3 cells
  Relative activity, Notch reporter: 7.40
Notch pathway; Um-Uc-3 cells
  relative drug trigged pathway activity over the no-drug level, Notch: 1.5 fold
T24; [2]
  Cell survival (%): 51.34%
T24; [3]
  Single drug 4X Cell Survival (%): 19.72%
SCaBER; [2]
  Cell survival (%): 56.83%
SCaBER; [3]
  Single drug 4X Cell Survival (%): 41.97%
[1]; 5637 cells
  relative drug trigged pathway activity over the no-drug level, DNA Damage: 2.87 fold
  Relative activity, DNA Damage reporter: 0.63
[1]; Biu87 cells
  digitalized pathway activity, DNA Damage: 0 (null (0) if neither of the above holds)
  relative drug trigged pathway activity over the no-drug level, DNA Damage: 1.35 fold
  Relative activity, DNA Damage reporter: 2.03
[1]; H-bc cells
  digitalized pathway activity, DNA Damage: 0 (null (0) if neither of the above holds)
  relative drug trigged pathway activity over the no-drug level, DNA Damage: 1.08 fold
  Relative activity, DNA Damage reporter: 0.73
[1]; SV-HUC-1 cells
  relative drug trigged pathway activity over the no-drug level, DNA Damage: 1.75 fold
  Relative activity, DNA Damage reporter: 4.20
[1]; UM-UC-3 cells
  digitalized pathway activity, DNA Damage: 0 (null (0) if neither of the above holds)
  Relative activity, DNA Damage reporter: 4.77
[1]; Um-Uc-3 cells
  relative drug trigged pathway activity over the no-drug level, DNA Damage: 1.37 fold
Biu87; Biu87, Table S3, ng/ml: Pi 40, Pa 160, EH 250, Ci 1500, Mi 200, 1=Ci/Mi, 2=EH/Ci/Mi, 3=Pa/Ci/Mi, 4=Pi/Ci/Mi
  Cell survival (%): 42.05%
Biu87; Biu87, ng/ml: EH 1000, Ci 6000, Mi 800, Pi 160, Pa 640, Ge 20, EH/Ci/Mi regimen
  Single drug 4X Cell Survival (%): 21.74%
Biu87; Biu87 cells, Table 4 (A)
  Cell survival 72 hours: 21.74%
Biu87; Biu87 cells, Table 4 (B)
  ACS (%): 21.74%
